Target: T1, adenosine deaminase (Homo sapiens, UniProt P00813)
T1 sequence (P00813 1-363): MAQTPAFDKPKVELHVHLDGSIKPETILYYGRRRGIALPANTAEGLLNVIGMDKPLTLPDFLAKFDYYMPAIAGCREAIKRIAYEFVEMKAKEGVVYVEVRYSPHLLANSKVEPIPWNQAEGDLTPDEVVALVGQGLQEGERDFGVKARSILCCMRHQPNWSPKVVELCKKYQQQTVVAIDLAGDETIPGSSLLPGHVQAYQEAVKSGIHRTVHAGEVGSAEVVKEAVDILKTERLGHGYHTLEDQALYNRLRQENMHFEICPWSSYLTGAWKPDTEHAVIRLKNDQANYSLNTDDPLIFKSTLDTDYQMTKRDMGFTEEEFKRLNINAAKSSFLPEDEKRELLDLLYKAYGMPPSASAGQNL
Experiment: Adenosine deaminase binding free energy, experimental
Conditions: not given

| Compound | inhibitor quality in words |
| --- | --- |
| OC[C@H]1O[C@@H](n2cnc3c2N=CNC3)[C@H](O)[C@@H]1O [1,6-dihydropurine ribonucleoside] | not a good inhibitor |

Same assay, conditions: binding free energy, dimensionless

| Compound | ΔG/RT (experimental) |
| --- | --- |
| OC[C@H]1O[C@@H](n2cnc3c2N=CNC3)[C@H](O)[C@@H]1O [1,6-dihydropurine ribonucleoside] | −12 |
| Nc1ncnc2c1ncn2[C@@H]1O[C@H](CO)[C@@H](O)[C@H]1O [adenosine] | −10 |
| OC[C@H]1O[C@@H](n2cnc3c2NC=N[C@@H]3O)[C@H](O)[C@@H]1O [hydrated purine ribonucleoside] | −29 |
| (R)-coformycin | −25 |

Tested on: AMP nucleosidase
Experiment: not given
Conditions: binding free energy, dimensionless

| Compound | ΔG/RT (experimental) |
| --- | --- |
| Nc1ncnc2c1ncn2[C@@H]1O[C@H](COP(=O)(O)O)[C@@H](O)[C@H]1O [AMP] | −9.0 |
| Nc1ncnc2c([C@@H]3O[C@H](CO)[C@@H](O)[C@H]3O)[nH]nc12 [formycin] | −17 |
| Nc1ncnc2c1ccn2[C@@H]1O[C@H](CO)[C@@H](O)[C@H]1O [tubercidin] | −9.9 |
| aminopyrazolo pyrimidine ribonucleotide | −12 |

Target: cytidine deaminase (Escherichia coli, UniProt P0ABF6)
Experiment: not given
Conditions: binding free energy from the literature; cited from earlier work

cytidine deaminase, sequence (P0ABF6 whole entry): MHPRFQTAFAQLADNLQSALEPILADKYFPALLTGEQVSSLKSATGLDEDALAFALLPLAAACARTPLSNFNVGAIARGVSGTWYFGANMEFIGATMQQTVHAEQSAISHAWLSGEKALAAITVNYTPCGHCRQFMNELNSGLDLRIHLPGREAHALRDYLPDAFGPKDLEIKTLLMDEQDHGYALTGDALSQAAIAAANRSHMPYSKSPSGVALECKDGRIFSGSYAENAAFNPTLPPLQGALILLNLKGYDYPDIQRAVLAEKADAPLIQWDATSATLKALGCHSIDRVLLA

| Compound | ΔG/RT (experimental) |
| --- | --- |
| O=C1NCC=CN1[C@@H]1O[C@H](CO)[C@@H](O)[C@H]1O [3,4-dihydrozebularine] | −10 |
| NC1=NC(=O)N([C@@H]2O[C@H](CO)[C@@H](O)[C@H]2O)CC1 [5,6-dihydrocytidine] | −9.1 |
| Nc1ccn([C@@H]2O[C@H](CO)[C@@H](O)[C@H]2O)c(=O)n1 [cytidine] | −9.9 |
| O=C1NC(O)C(Cl)=CN1[C@@H]1O[C@H](CO)[C@@H](O)[C@H]1O (some centres unmarked) [hydrated 5-chloro-pyrimidine-2-one ribonucleoside] | −19 |
| O=C1NC(O)C(F)=CN1[C@@H]1O[C@H](CO)[C@@H](O)[C@H]1O (some centres unmarked) [hydrated 5-fluoro-pyrimidine-2-one ribonucleoside] | −24 |
| O=c1ccn([C@@H]2O[C@H](CO)[C@@H](O)[C@H]2O)c(=O)[nH]1 [uridine] | −6.0 |
| hydrated 5-bromo-pyrimidine-2-one ribonucleoside | −18 |
| hydrated pyrimidine-2-one ribonucleoside | −27 |
